{
  "source": "patent US8093259B2",
  "about": "“4-methyl-3-[[4-(3-pyridinyl)-2-pyrimidinyl]amino]-N-[5-(4-methyl-1H-imidazol-1-yl)-3-(trifluoromethyl)phenyl]-benzamide for treatment of melanoma” (Novartis AG, priority 2006, dated 2012)",
  "key": {"EphB4": {"molecular_target": "T1, EphB4 (Homo sapiens, UniProt P54760)", "T1 sequence (P54760 16-987)": "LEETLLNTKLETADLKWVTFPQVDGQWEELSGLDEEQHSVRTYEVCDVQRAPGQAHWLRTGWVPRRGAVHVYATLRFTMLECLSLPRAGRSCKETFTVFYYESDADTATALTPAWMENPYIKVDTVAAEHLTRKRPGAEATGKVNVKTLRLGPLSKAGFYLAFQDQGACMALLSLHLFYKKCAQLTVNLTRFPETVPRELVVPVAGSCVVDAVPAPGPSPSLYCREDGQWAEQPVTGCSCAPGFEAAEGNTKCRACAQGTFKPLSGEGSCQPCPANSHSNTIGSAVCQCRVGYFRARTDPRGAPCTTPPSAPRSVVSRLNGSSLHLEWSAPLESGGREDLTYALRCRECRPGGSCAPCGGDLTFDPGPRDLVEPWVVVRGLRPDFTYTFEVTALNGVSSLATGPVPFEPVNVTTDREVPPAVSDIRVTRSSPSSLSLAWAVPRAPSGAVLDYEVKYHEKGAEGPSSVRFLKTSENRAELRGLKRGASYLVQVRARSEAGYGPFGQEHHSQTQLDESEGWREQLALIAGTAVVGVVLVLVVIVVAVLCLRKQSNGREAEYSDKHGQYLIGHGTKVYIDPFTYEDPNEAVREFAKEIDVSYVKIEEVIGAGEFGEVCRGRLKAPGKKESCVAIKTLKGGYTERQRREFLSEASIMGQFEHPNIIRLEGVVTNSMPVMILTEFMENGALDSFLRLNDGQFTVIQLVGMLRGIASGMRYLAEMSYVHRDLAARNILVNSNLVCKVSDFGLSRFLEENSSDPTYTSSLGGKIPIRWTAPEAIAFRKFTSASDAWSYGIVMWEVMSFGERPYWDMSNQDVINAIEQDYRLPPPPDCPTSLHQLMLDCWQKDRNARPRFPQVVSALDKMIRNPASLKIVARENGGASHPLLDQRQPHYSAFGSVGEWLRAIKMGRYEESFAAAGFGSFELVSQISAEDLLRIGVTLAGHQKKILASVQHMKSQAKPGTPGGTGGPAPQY", "test": "Cell capture ELISA of EphB4 phosphorylation in stably transfected A375 melanoma cells stimulated with ephrinB2", "format": "cell-based", "settings": "two independent experiments", "description": "A cell capture ELISA has been set up to quantify the amount of phosphorylated EphB4 receptor protein in cell extracts. To this purpose, A375 melanoma cells have been stably transfected with full length EphB4 and EphB4 phosphorylation was induced by the addition of the ligand ephrinB2 in the presence of vanadate. Lysates from unstimulated cells were used as negative controls. […] Measurements were done in duplicates and two independent experiments were performed. Cell lysates were prepared and the receptor protein was captured on ELISA plates. Phosphorylated receptor was detected and quantified using alkaline phosphatase coupled anti-phosphotyrosine antibodies."}, "murine EphB4 kinase": {"molecular_target": "T2, murine EphB4 kinase (Mus musculus, UniProt P54761)", "T2 construct": "from tissue; host or cells: mouse lung tissue", "T2 sequence (P54761 16-987)": "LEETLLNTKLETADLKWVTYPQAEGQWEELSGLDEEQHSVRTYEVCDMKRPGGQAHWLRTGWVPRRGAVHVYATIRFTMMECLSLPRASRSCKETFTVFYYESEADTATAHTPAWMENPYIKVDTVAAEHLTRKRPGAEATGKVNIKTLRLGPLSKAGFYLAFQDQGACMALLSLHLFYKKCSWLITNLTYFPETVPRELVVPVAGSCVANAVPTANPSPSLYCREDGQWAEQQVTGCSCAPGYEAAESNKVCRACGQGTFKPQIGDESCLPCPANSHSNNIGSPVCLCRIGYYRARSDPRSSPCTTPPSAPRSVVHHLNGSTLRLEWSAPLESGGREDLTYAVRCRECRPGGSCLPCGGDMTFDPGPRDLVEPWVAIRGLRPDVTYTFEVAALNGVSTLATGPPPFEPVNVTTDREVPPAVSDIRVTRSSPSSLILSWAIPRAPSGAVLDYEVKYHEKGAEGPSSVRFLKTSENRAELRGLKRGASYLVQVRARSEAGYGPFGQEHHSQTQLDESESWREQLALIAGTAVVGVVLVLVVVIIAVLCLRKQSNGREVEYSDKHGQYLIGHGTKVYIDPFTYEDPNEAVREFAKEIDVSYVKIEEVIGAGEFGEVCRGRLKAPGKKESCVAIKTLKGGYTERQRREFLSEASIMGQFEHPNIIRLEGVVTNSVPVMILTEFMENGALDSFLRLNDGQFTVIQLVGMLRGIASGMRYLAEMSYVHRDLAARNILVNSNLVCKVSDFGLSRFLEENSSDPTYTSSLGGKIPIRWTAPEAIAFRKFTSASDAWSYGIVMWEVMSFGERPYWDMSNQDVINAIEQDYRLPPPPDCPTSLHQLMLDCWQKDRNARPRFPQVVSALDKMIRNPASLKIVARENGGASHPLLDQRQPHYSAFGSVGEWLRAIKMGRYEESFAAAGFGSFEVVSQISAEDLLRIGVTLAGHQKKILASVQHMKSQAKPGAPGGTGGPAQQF", "test": "EphB4 phosphorylation in lung tissue of mice (anti-pY Western blot of immunoprecipitates)", "format": "in vivo", "settings": "naïve mice, 50 mg/kg p.o.", "protocol": "(§1) Plasma and lung samples were collected. Lung samples were split into two parts, one lobe was further processed for pharmacokinetic analysis, the other lobe was processed for analysis of phosphorylated EphB4 receptor. For controls, one group of animals was treated for 2 h with NMP (10%) PEG (90%)."}, "[1]": {"settings": "mouse, in vivo, po, 50 mg/kg", "protocol": "as §1"}},
  "note": "Read-outs that look alike come from different tables or passages of the source.",
  "data": [
    {"smiles": "Cc1cn(-c2cc(NC(=O)c3ccc(C)c(Nc4nccc(-c5cccnc5)n4)c3)cc(C(F)(F)F)c2)cn1", "note": "[4-Methyl-3-[[4-(3-pyridinyl)-2-pyrimidinyl]amino]-N-[5-(4-methyl-1H-imidazol-1-yl)-3-(trifluoromethyl)phenyl] benzamide]", "values": [
      {"measurement": "Inhibition of EphB4 phosphorylation", "setting": "EphB4", "value": "dose dependently inhibited EphB4 phosphorylation"},
      {"measurement": "Phosphorylation of EphB4 in lung tissue", "setting": "murine EphB4 kinase; 2 h after administration", "value": "nearly abolished"},
      {"measurement": "Phosphorylation of EphB4 in lung tissue", "setting": "murine EphB4 kinase; 24 h after administration", "value": "recovers to control levels"},
      {"measurement": "Effect on EphB4 protein levels in lung tissue", "setting": "murine EphB4 kinase; both time points (2 h and 24 h)", "value": "No effect"},
      {"measurement": "Compound level in lung tissue", "setting": "[1]; 2 h", "value": "40 to 50", "unit": "nmol/g"},
      {"measurement": "Compound level in lung tissue", "setting": "[1]; 24 h", "value": 0.7, "unit": "nmol/g"}
    ]}
  ]
}
